Reference: article PMC9120017, “Inhibition mechanism of the chloride channel TMEM16A by the pore blocker 1PBC” (Nature Communications, 2022)
Like-named read-outs stand apart in the source and are kept apart here.

Molecular target: T1, mouse TMEM16A mutant N546A (Mus musculus, UniProt Q8BHY3, N546A)
T1 construct: expressed in transfected cells; host or cells: HEK293T
T1 sequence (Q8BHY3 1-960 N546A): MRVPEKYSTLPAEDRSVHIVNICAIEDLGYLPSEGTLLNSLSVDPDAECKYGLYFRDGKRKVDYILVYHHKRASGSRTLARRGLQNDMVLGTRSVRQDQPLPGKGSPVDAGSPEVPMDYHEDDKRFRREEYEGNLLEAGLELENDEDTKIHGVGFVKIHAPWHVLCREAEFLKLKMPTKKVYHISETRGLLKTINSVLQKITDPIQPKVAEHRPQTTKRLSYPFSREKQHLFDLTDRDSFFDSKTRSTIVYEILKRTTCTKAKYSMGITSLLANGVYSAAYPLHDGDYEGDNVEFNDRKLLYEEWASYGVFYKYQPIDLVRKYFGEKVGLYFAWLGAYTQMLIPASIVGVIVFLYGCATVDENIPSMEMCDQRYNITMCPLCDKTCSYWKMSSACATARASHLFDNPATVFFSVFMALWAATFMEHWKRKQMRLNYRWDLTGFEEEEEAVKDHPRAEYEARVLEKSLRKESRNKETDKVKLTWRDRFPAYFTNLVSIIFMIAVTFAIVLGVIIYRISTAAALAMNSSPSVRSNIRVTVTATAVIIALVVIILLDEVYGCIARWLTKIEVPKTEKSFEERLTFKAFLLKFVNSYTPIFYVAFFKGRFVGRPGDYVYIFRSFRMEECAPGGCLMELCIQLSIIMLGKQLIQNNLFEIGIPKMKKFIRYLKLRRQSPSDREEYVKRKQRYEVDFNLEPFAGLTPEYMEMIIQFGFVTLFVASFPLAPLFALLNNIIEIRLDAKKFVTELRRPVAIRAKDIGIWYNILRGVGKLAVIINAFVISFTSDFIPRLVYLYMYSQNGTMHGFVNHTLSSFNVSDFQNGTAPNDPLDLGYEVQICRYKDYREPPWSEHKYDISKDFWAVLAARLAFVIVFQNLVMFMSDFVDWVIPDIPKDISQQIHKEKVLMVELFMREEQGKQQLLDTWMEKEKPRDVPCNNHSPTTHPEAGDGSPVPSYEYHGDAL
Assay: Inside-out patch recording of 1PBC block, mutant N546A
Assay type: cell-based
Settings: for remaining activity at 1 µM: 1PBC 1; for remaining activity at 1 µM / remaining activity at 3 µM / remaining activity at 10 µM: read-out: fraction of unblocked current; for remaining activity at 3 µM: 1PBC 3; for remaining activity at 10 µM: 1PBC 10
Description: HEK293T cells (ATCC CRL-1573) were maintained in Dulbecco’s modified Eagle’s medium (DMEM; Sigma-Aldrich) supplemented with 10 U ml^−1 penicillin, 0.1 mg ml^−1 streptomycin (Sigma-Aldrich), 2 mM L-glutamine (Sigma-Aldrich), and 10% FBS (Sigma-Aldrich) in a humidified atmosphere containing 5% CO2 at 37 °C. HEK293S GnTI^− cells (ATCC CRL-3022) were maintained in HyClone HyCell TransFx-H medium (GE Healthcare) supplemented with 10 U ml^−1 penicillin, 0.1 mg ml^−1 streptomycin, 4 mM L-glutamine, 0.15% poloxamer 188 (Sigma-Aldrich), and 1% FBS in an atmosphere containing 5% CO2 at 185 rpm at 37 °C. The ac splice variant of mouse TMEM16A (UniProt ID: Q8BHY3), mouse TMEM16B (UniProt ID: Q8CFW1), or mouse TMEM16F (UniProt ID: Q6P9J9) bearing a 3C cleavage site, a Venus YFP, a Myc tag, and a Streptavidin-binding peptide (SBP) downstream of the open reading frame in a modified pcDNA3.1 vector (Invitrogen) were used as described previously[21],[31]. Mutations were introduced using a modified QuikChange method[58] and were verified by sequencing.
HEK293T cells were transfected with 3–4 μg DNA per 6 cm Petri dish using the calcium phosphate co-precipitation method and were used within 24–96 h after transfection. Recordings were performed on inside-out patches excised from HEK293T cells expressing the construct of interest. Patch pipettes were pulled from borosilicate glass capillaries (O.D. 1.5 mm, I.D. 0.86 mm, Sutter Instrument) and were fire-polished with a microforge (Narishige) before use. Pipette resistance was typically 3–8 MΩ when filled with the recording solutions detailed below. Seal resistance was typically 4 GΩ or higher. Voltage-clamp recordings were made using Axopatch 200B, Digidata 1550, and Clampex 10.7 (Molecular Devices). Analog signals were filtered with the in-built 4-pole Bessel filter at 10 kHz and were digitized at 20 kHz. Solution exchange was achieved using a gravity-fed system through a theta glass pipette mounted on an ultra-fast piezo-driven stepper (Siskiyou). […] All recordings were performed at 20 °C.
A symmetrical ionic condition was used throughout. Stock solution with Ca^2+-EGTA contained 150 mM NaCl, 5.99 mM Ca(OH)2, 5 mM EGTA, and 10 mM HEPES at pH 7.40. Stock solution with EGTA contained 150 mM NaCl, 5 mM EGTA, and 10 mM HEPES at pH 7.40. Free Ca^2+ concentrations were adjusted by mixing the stock solutions at the required ratios calculated using the WEBMAXC program (http://web.stanford.edu/~cpatton/webmaxcS.htm). Patch pipettes were filled with the stock solution with Ca^2+-EGTA, which has a free Ca^2+ concentration of 1 mM. 1PBC (ChemBridge) stock was reconstituted in anhydrous DMSO (Sigma-Aldrich) at 100 mM and stored at −20 °C. Working solutions with 1PBC were prepared by serial dilution. Unless otherwise stated, experiments were performed at a saturating Ca^2+ concentration as shown in Supplementary Table 1 and the primary data were corrected for current rundown as described previously[21],[25].
Concentration-response relations, obtained from the ratio of the I-V plots before and after the application of the blocker, were fitted to the Hill equation,1 I/Imax=1/1+IC50/[blocker]^h where I/Imax is the normalized current responses, IC50 defines the concentration at which inhibition is at its half-maximum, and h is the Hill coefficient.

Compound: N#Cc1c(C(F)(F)F)cc(O)n2c1nc1ccccc12 [1PBC]
- IC50 (0 mV, 2 µM Ca2+): 594 nM
- remaining activity at 1 µM (0 mV): 35.3%
- remaining activity at 1 µM (20 mV): 28.4%
- remaining activity at 1 µM (40 mV): 22%
- remaining activity at 1 µM (60 mV): 19.8%
- remaining activity at 1 µM (80 mV): 18.3%
- remaining activity at 1 µM (100 mV): 19.3%
- remaining activity at 1 µM (120 mV): 20.4%
- remaining activity at 1 µM (140 mV): 24.4%
- remaining activity at 1 µM (-20 mV): 42.1%
- remaining activity at 1 µM (-40 mV): 47.5%
- remaining activity at 1 µM (-60 mV): 55.1%
- remaining activity at 1 µM (-80 mV): 60.7%
- remaining activity at 1 µM (-100 mV): 65.9%
- remaining activity at 1 µM (-120 mV): 69.4%
- remaining activity at 1 µM (-140 mV): 71.9%
- remaining activity at 3 µM (0 mV): 16.8%
- remaining activity at 3 µM (20 mV): 12.7%
- remaining activity at 3 µM (40 mV): 11%
- remaining activity at 3 µM (60 mV): 8.55%
- remaining activity at 3 µM (80 mV): 9.38%
- remaining activity at 3 µM (100 mV): 9.83%
- remaining activity at 3 µM (120 mV): 10.5%
- remaining activity at 3 µM (140 mV): 17.6%
- remaining activity at 3 µM (-20 mV): 20.8%
- remaining activity at 3 µM (-40 mV): 25.6%
- remaining activity at 3 µM (-60 mV): 31.9%
- remaining activity at 3 µM (-80 mV): 36.9%
- remaining activity at 3 µM (-100 mV): 42.7%
- remaining activity at 3 µM (-120 mV): 48.5%
- remaining activity at 3 µM (-140 mV): 51.2%
- remaining activity at 10 µM (0 mV): 5.97%
- remaining activity at 10 µM (20 mV): 5.12%
- remaining activity at 10 µM (40 mV): 3.23%
- remaining activity at 10 µM (60 mV): 3.5%
- remaining activity at 10 µM (80 mV): 3.36%
- remaining activity at 10 µM (100 mV): 5.03%
- remaining activity at 10 µM (120 mV): 4.78%
- remaining activity at 10 µM (140 mV): 10.2%
- remaining activity at 10 µM (-20 mV): 6.81%
- remaining activity at 10 µM (-40 mV): 10.2%
- remaining activity at 10 µM (-60 mV): 13.2%
- remaining activity at 10 µM (-80 mV): 16.4%
- remaining activity at 10 µM (-100 mV): 19.7%
- remaining activity at 10 µM (-120 mV): 24.7%
- remaining activity at 10 µM (-140 mV): 27.4%
- IC50 (20 mV, 2 µM Ca2+): 431 nM
- IC50 (40 mV, 2 µM Ca2+): 326 nM
- IC50 (60 mV, 2 µM Ca2+): 269 nM
- log-fold IC50 (change of mutant vs WT) (80 mV): -0.9263
- IC50 (80 mV, 2 µM Ca2+): 239 nM
- IC50 (100 mV, 2 µM Ca2+): 233 nM
- IC50 (120 mV, 2 µM Ca2+): 238 nM
- IC50 (140 mV, 2 µM Ca2+): 315 nM
- IC50 (-20 mV, 2 µM Ca2+): 805 nM
- IC50 (-40 mV, 2 µM Ca2+): 1020 nM
- IC50 (-60 mV, 2 µM Ca2+): 1360 nM
- IC50 (-80 mV, 2 µM Ca2+): 1720 nM
- IC50 (-100 mV, 2 µM Ca2+): 2170 nM
- IC50 (-120 mV, 2 µM Ca2+): 2750 nM
- IC50 (-140 mV, 2 µM Ca2+): 3100 nM
- IC50 (N546A, V 0 mV): 594 nM
- IC50 (N546A, V 20 mV): 431 nM
- IC50 (N546A, V 40 mV): 326 nM
- IC50 (N546A, V 60 mV): 269 nM
- IC50 (N546A, V 80 mV): 239 nM
- IC50 (N546A, V 100 mV): 233 nM
- IC50 (N546A, V 120 mV): 238 nM
- IC50 (N546A, V 140 mV): 315 nM
- IC50 (N546A, V -20 mV): 805 nM
- IC50 (N546A, V -40 mV): 1020 nM
- IC50 (N546A, V -60 mV): 1360 nM
- IC50 (N546A, V -80 mV): 1720 nM
- IC50 (N546A, V -100 mV): 2170 nM
- IC50 (N546A, V -120 mV): 2750 nM
- IC50 (N546A, V -140 mV): 3100 nM
